Data reported in patent publication US10526347B2, “3-(3H-imidazo[4,5-B]pyridin-2-yl)-1H-pyrazolo[3,4-B]pyridine and therapeutic uses thereof” (Samumed, LLC, priority 2014, dated 2020).

Experiments:
[1] = tested on: primary human fibroblasts derived from IPF patients (LL29 cells); assay: Inhibition of the fibrotic process in TGF-β1 treated IPF patient fibroblasts (αSMA staining); type: cell-based; settings: Fibroblast, 96 h, LL29 cells treated with TGF-β1 (20 ng/mL), 4 days, read-out: Inhibition of fibrosis EC50
Excerpt: The above synthesized compounds were screened using primary human fibroblasts (derived from IPF patients) treated with TGF-β1 to determine their ability to inhibit the fibrotic process.
Primary human fibroblasts derived from IPF patients (LL29 cells) [^1Xiaoqiu Liu, et. al., “Fibrotic Lung Fibroblasts Show Blunted Inhibition by cAMP Due to Deficient cAMP Response Element-Binding Protein Phosphorylation”, Journal of Pharmacology and Experimental Therapeutics (2005), 315(2), 678-687; ^2Watts, K. L., et. al., “RhoA signaling modulates cyclin D1 expression in human lung fibroblasts; implications for idiopathic pulmonary fibrosis”, Respiratory Research (2006), 7(1), 88] were obtained from American Type Culture Collection (ATCC) and expanded in F12 medium supplemented with 15% Fetal Bovine Serum and Penicillin/Streptomycin.
Each compound was dissolved in DMSO as a 10 mM stock and used to prepare compound source plates. Serial dilution (1:2, 11-point dose-response curves from 10 μM to 1.87 nM) and compound transfer was performed using the ECHO 550 (Labcyte, Sunnyvale, Calif.) into 384-well clear bottom assay plates (Greiner Bio-One) with appropriate DMSO backfill for a final DMSO concentration of 0.1%. LL29 cells were plated at 1,500 cells/well in 80 μl/well F12 medium supplemented with 1% Fetal Bovine Serum. One hour after addition of the cells, TGF-β1 (Peprotech; 20 ng/mL) was added to the plates to induce fibrosis (ref. 1 and 2 above). Wells treated with TGF-β1 and containing DMSO were used as controls. Cells were incubated at 37° C. and 5% CO2 for 4 days. Following incubation for 4 days, SYTOX green nucleic acid stain (Life Technologies [Thermo Fisher Scientific]) was added to the wells at a final concentration of 1 uM and incubated at room temperature for 30 min. Cells were then fixed using 4% formaldehyde (Electron Microscopy Sciences), washed 3 times with PBS followed by blocking and permeabilization using 3% Bovine Serum Albumin (BSA; Sigma) and 0.3% Triton X-100 (Sigma) in PBS. Cells were then stained with antibody specific to α-smooth muscle actin (αSMA; Abcam) (ref. 1 and 2 above) in 3% Bovine Serum Albumin (BSA; Sigma) and 0.3% Triton X-100 (Sigma) in PBS, and incubated overnight at 4° C. Cells were then washed 3 times with PBS, followed by incubation with Alexa Flor-647 conjugated secondary antibody (Life Technologies [Thermo Fisher Scientific]) and DAPI at room temperature for 1 hour. Cells were then washed 3 times with PBS and plates were sealed for imaging. αSMA staining was imaged by excitation at 630 nm and emission at 665 nm and quantified using the Compartmental Analysis program on the CellInsight CX5 (Thermo Scientific). Dead or apoptotic cells were excluded from analysis based on positive SYTOX green staining. % of total cells positive for αSMA were counted in each well and normalized to the average of 11 wells treated with TGF-β1 on the same plate using Dotmatics' Studies Software. The normalized averages (fold change over untreated) of 3 replicate wells for each compound concentration were used to create dose-responses curves and EC50 values were calculated using non-linear regression curve fit in the Dotmatics' Studies Software. The EC50 values are reported.

[2] = tested on: Wnt activity (SW480 colon carcinoma cells stably expressing the Sp5-Luc reporter gene); assay: Sp5-Luc reporter gene screening assay for Wnt activity; type: cell-based; settings: Homo sapiens
Excerpt: The screening assay for Wnt activity is described as follows. Reporter cell lines can be generated by stably transducing cancer cell lines (e.g., colon cancer) or primary cells (e.g., IEC-6 intestinal cells) with a lentiviral construct that includes a Wnt-responsive promoter driving expression of the firefly luciferase gene.
SW480 colon carcinoma cells were transduced with a lentiviral vector expressing luciferase with a human Sp5 promoter consisting of a sequence of eight TCF/LEF binding sites. SW480 cells stably expressing the Sp5-Luc reporter gene and a hygromycin resistance gene were selected by treatment with 150 μg/ml of hygromycin for 7 days. These stably transduced SW480 cells were expanded in cell culture and used for all further screening activities. For Sp5-Luc reporter gene assays, the cells were plated at 10,000 cells/well in 96-well plates with growth medium containing 10% fetal calf serum and incubated overnight at 37° C. and 5% CO2. Each compound was dissolved in DMSO as a 10 mM stock in standard j-vials and used to prepare compound source plates in dose-response format with 3-fold serial dilutions and a 10 mM top concentration. Compound transfer from serially diluted source plates to assay plates containing the cells was accomplished using a pintool (Multimek 96, Beckman equipped with V&P Scientific FP1S50H pins) based liquid handling protocol. This protocol used a slotted pin to transfer 50 nl of compound from a source plate well to an assay plate well containing 50 μl of cells in growth medium. […] Control wells received 50 nl of DMSO treatment for normalization and calculating IC50 values. The treated cells were incubated at 37° C. and 5% CO2 for an additional forty-two hours. Following incubation, the growth medium was removed and 50 μl of BrightGlo luminescence reagent (Promega) was added to each well of the 96-well assay plates. The plates were placed on an orbital shaker for 5 min and then luminescence was quantified on the Victor3 (Perkin Elmer) plate reader. Readings were normalized to DMSO only treated cells, and normalized activities were utilized for IC50 calculations using the dose-response log (inhibitor) vs. response -variable slope (four parameters) nonlinear regression feature available in GraphPad Prism 5.0 or 6.0.

IC50 [2] [nM] | Structure (SMILES) | EC50 [1] [nM]
4210 | FC1(F)CCN(Cc2cncc(-c3cnc4[nH]nc(-c5nc6c(N7CCCCC7)ccnc6[nH]5)c4c3)c2)C1 [Compound 157, 5-(5-((3,3-Difluoropyrrolidin-1-yl)methyl)pyridin-3-yl)-3-(7-(piperidin-1-yl)-3H-imidazo[4,5-b]pyridin-2-yl)-1H-pyrazolo[3,4-b]pyridine] | ≤ 9
> 10000 | CN(C)CCOc1cncc(-c2cnc3[nH]nc(-c4nc5c(-c6cccc(F)c6)ccnc5[nH]4)c3c2)c1 [Compound 919, 2-((5-(3-(7-(3-Fluorophenyl)-3H-imidazo[4,5-b]pyridin-2-yl)-1H-pyrazolo [3,4-b]pyridin-5-yl)pyridin-3-yl)oxy)-N,N-dimethylethan-1-amine] | ≤ 9
129 | CC(C)Nc1cncc(-c2cnc3[nH]nc(-c4nc5c(-c6cc(F)cc(NCCN(C)C)c6)ccnc5[nH]4)c3c2)c1 [Compound 426, N^1-(3-Fluoro-5-(2-(5-(5-(isopropylamino)pyridin-3-yl)-1H-pyrazolo [3,4-b]pyridin-3-yl)-3H-imidazo[4,5-b]pyridin-7-yl)phenyl)-N^2,N^2-dimethylethane-1,2-diamine] | 287
> 10000 | CN(C)Cc1cncc(-c2cnc3[nH]nc(-c4nc5c(-c6cccs6)ccnc5[nH]4)c3c2)c1 [Compound 297, N,N-Dimethyl-1-(5-(3-(7-(thiophen-2-yl)-3H-imidazo[4,5-b]pyridin-2-yl)-1H-pyrazolo[3,4-b]pyridin-5-yl)pyridin-3-yl)methanamine] | ≥ 9990
384 | CN(C)c1cncc(-c2cnc3[nH]nc(-c4nc5c(N6CCCCC6)ccnc5[nH]4)c3c2)c1 [Compound 139, N,N-Dimethyl-5-(3-(7-(piperidin-1-yl)-3H-imidazo[4,5-b]pyridin-2-yl)-1H-pyrazolo[3,4-b]pyridin-5-yl)pyridin-3-amine] | ≥ 9990
> 10000 | Fc1cccc(-c2ccnc3[nH]c(-c4n[nH]c5ncc(-c6ccncc6)cc45)nc23)c1 [Compound 924, 3-(7-(3-Fluorophenyl)-3H-imidazo[4,5-b]pyridin-2-yl)-5-(pyridin-4-yl)-1H-pyrazolo[3,4-b]pyridine] | ≥ 9990
751 | O=C(Cc1ccccc1)Nc1cncc(-c2cnc3[nH]nc(-c4nc5cccnc5[nH]4)c3c2)c1 [Compound 216, N-(5-(3-(3H-Imidazo[4,5-b]pyridin-2-yl)-1H-pyrazolo[3,4-b]pyridin-5-yl)pyridin-3-yl)-2-phenylacetamide] | ≥ 9990
27 | CC(C)CC(=O)Nc1cncc(-c2cnc3[nH]nc(-c4nc5c(-c6ccc(F)s6)ccnc5[nH]4)c3c2)c1 [Compound 312, N-(5-(3-(7-(5-Fluorothiophen-2-yl)-3H-imidazo[4,5-b]pyridin-2-yl)-1H-pyrazolo[3,4-b]pyridin-5-yl)pyridin-3-yl)-3-methylbutanamide] | 189
> 10000 | Fc1cccc(-c2ccnc3[nH]c(-c4n[nH]c5ncc(-c6ccccn6)cc45)nc23)c1 [Compound 925, 3-(7-(3-Fluorophenyl)-3H-imidazo[4,5-b]pyridin-2-yl)-5-(pyridin-2-yl)-1H-pyrazolo[3,4-b]pyridine] | ≥ 9990
> 10000 | CN1CCN(c2ccnc3[nH]c(-c4n[nH]c5ncc(-c6cncc(CN7CCCCC7)c6)cc45)nc23)CC1 [Compound 198, 3-(7-(4-Methylpiperazin-1-yl)-3H-imidazo[4,5-b]pyridin-2-yl)-5-(5-(piperidin-1-ylmethyl)pyridin-3-yl)-1H-pyrazolo[3,4-b]pyridine] | 3040
27 | Oc1cncc(-c2cnc3[nH]nc(-c4nc5c(-c6cccc(F)c6)ccnc5[nH]4)c3c2)c1 [Compound 921, 5-(3-(7-(3-Fluorophenyl)-3H-imidazo[4,5-b]pyridin-2-yl)-1H-pyrazolo[3,4-b]pyridin-5-yl)pyridin-3-ol] | 164
1130 | CC(C)CC(=O)Nc1cncc(-c2cnc3[nH]nc(-c4nc5c(-c6cc(F)cc(OCCN(C)C)c6)ccnc5[nH]4)c3c2)c1 [Compound 1234, N-(5-(3-(7-(3-(2-(Dimethylamino)ethoxy)-5-fluorophenyl)-3H-imidazo[4,5-b]pyridin-2-yl)-1H-pyrazolo[3,4-b]pyridin-5-yl)pyridin-3-yl)-3-methylbutanamide] | –
192 | CC(C)(C)CC(=O)Nc1cncc(-c2cnc3[nH]nc(-c4nc5cccnc5[nH]4)c3c2)c1 [Compound 222, N-(5-(3-(3H-Imidazo[4,5-b]pyridin-2-yl)-1H-pyrazolo[3,4-b]pyridin-5-yl)pyridin-3-yl)-3,3-dimethylbutanamide] | –
1020 | NC1CN(c2cncc(-c3cnc4[nH]nc(-c5nc6c(-c7cccc(F)c7)ccnc6[nH]5)c4c3)n2)C1 [Compound 914, 1-(6-(3-(7-(3-Fluorophenyl)-3H-imidazo[4,5-b]pyridin-2-yl)-1H-pyrazolo [3,4-b]pyridin-5-yl)pyrazin-2-yl)azetidin-3-amine] | –
> 10000 | CN1CCN(c2ccnc3[nH]c(-c4n[nH]c5ncc(-c6cncnc6)cc45)nc23)CC1 [Compound 209, 3-(7-(4-Methylpiperazin-1-yl)-3H-imidazo[4,5-b]pyridin-2-yl)-5-(pyrimidin-5-yl)-1H-pyrazolo[3,4-b]pyridine] | –
38 | FC1(F)CCN(Cc2cncc(-c3cnc4[nH]nc(-c5nc6c(-c7cccs7)ccnc6[nH]5)c4c3)c2)C1 [Compound 309, 5-(5-((3,3-Difluoropyrrolidin-1-yl)methyl)pyridin-3-yl)-3-(7-(thiophen-2-yl)-3H-imidazo[4,5-b]pyridin-2-yl)-1H-pyrazolo[3,4-b]pyridine] | –
> 10000 | Fc1cccc(-c2ccnc3[nH]c(-c4n[nH]c5ncc(-c6cncc(OCCN7CCCC7)c6)cc45)nc23)c1 [Compound 918, 3-(7-(3-Fluorophenyl)-3H-imidazo[4,5-b]pyridin-2-yl)-5-(5-(2-(pyrrolidin-1-yl)ethoxy)pyridin-3-yl)-1H-pyrazolo[3,4-b]pyridine] | –
890 | CC(C)CC(=O)Nc1cncc(-c2cnc3[nH]nc(-c4nc5c(-c6cc(F)cc(OCCN7CCCC7)c6)ccnc5[nH]4)c3c2)c1 [Compound 1278, N-(5-(3-(7-(3-Fluoro-5-(2-(pyrrolidin-1-yl)ethoxy)phenyl)-3H-imidazo[4,5-b]pyridin-2-yl)-1H-pyrazolo[3,4-b]pyridin-5-yl)pyridin-3-yl)-3-methylbutanamide] | –
377 | Fc1ccc(-c2ccnc3[nH]c(-c4n[nH]c5ncc(-c6cncnc6)cc45)nc23)cc1 [Compound 44, 3-(7-(4-Fluorophenyl)-3H-imidazo[4,5-b]pyridin-2-yl)-5-(pyrimidin-5-yl)-1H-pyrazolo[3,4-b]pyridine] | –
